The source of these data is patent US12653190B2, “Heteroaryl-triazole compounds as pesticides” (Bayer Aktiengesellschaft, priority 2020, dated 2026).

What all share (format): in vivo
For test [1], the system named is larvae of the banded cucumber beetle (Diabrotica balteata). Put plainly: Diabrotica balteata spray test. Conditions: 168 h, 100 g/ha (=32 μg/well), after 7 days, wheat seeds, read-out: efficacy (seedling growth). The method, then:
Diabrotica balteata—Spray Test
(§1) • Solvent: 78.0 parts by weight of acetone • 1.5 parts by weight of dimethylformamide • Emulsifier: alkylarylpolyglycol ether
(§2) To produce a suitable preparation of active compound, 1 part by weight of active compound is mixed with the stated amount of solvent, and the concentrate is diluted with water, containing an emulsifier concentration of 1000 ppm, to the desired concentration. Further test concentrations are prepared by dilution with emulsifier containing water.
Soaked wheat seeds (Triticum aestivum) are placed in a multiple well plate filled with agar and some water and are incubated for 1 day to germinate (5 seeds per well). The germinated wheat seeds are sprayed with a test solution containing the desired concentration of the active ingredient. Afterwards each unit is infected with 10-20 larvae of the banded cucumber beetle (Diabrotica balteata).
After 7 days efficacy in % is determined. 100% means all the seedlings have grown up like in the untreated, uninfected control; 0% means none of the seedlings have grown.

Test [2] deals with fall armyworm larvae (Spodoptera frugiperda). Put plainly: Spodoptera frugiperda spray test. Conditions: in Zea mays, 168 h. The method, then: Spodoptera frugiperda—Spray Test
• Solvent: 78.0 parts by weight acetone • 1.5 parts by weight dimethylformamide • Emulsifier: alkylarylpolyglycol ether
To produce a suitable preparation of active compound, 1 part by weight of active compound is mixed with the stated amount of solvents and is diluted with water, containing an emulsifier concentration of 1000 ppm, to the desired concentration. Further test concentrations are prepared by dilution with emulsifier containing water.
Maize (Zea mays) leaf sections are sprayed with a preparation of the active ingredient of the desired concentration. Once dry, the leaf sections are infested with fall armyworm larvae (Spodoptera frugiperda). After 7 days mortality in % is determined. 100% means all caterpillars have been killed and 0% means none of the caterpillars have been killed.

Test [3] relates to adult engorged female ticks (Rhipicephalus microplus). Description: Rhipicephalus (Boophilus) microplus injection test. Particulars: 168 h, egg deposition monitored after 7 days, read-out: efficacy (infertile eggs); for pest or weed control at 4 µg/tick: 4 μg/tick injected; for pest or weed control at 20 µg/tick: 20 μg/tick injected. The method, then:
Rhipicephalus (Boophilus) microplus—Iniectiontest
• Solvent: dimethyl sulfoxide
To produce a suitable preparation of active compound, 10 mg of active compound are dissolved in 0.5 mL solvent, and the concentrate is diluted with solvent to the desired concentration.
Five adult engorged female ticks (Rhipicephalus microplus) are injected with 1 μL compound solution into the abdomen. The ticks are transferred into replica plates and incubated in a climate chamber.
After 7 days egg deposition of fertile eggs is monitored. Eggs where fertility is not visible are stored in a climate chamber till hatching after about 42 days. An efficacy of 100% means all eggs are infertile; 0% means all eggs are fertile.

Test [4] has as its system larvae of the southern green stink bug (Nezara viridula). Put plainly: Nezara viridula spray test. Conditions: 96 h, after 4 days, barley plants. The method, then: Nezara viridula—Spray Test
as §1, §2
Barley plants (Hordeum vulgare) are sprayed with a test solution containing the desired concentration of the active ingredient and are infested with larvae of the southern green stink bug (Nezara viridula).
After 4 days mortality in % is determined. 100% means all the stink bugs have been killed; 0% means none of the stink bugs have been killed.

SMILES strings stand for the structures.

The term mortality denotes the share of the test organisms that died. A low value points to a weak lethal effect. As to `C[C@H](NC(=O)c1cc(Br)cc(C(F)(F)c2ccc(F)cc2)c1)c1ncnn1-c1cnc(C#N)cn1` [Example I-77], in test [1], the pest or weed control at 32 µg/disc, 100 g/ha was found to be 100%. Also, the mortality at 100 g/ha in test [2] turned out to be 100%.

On to `Cc1nc([C@H](C)NC(=O)c2cc(OCc3ccc(Cl)cc3)cc(C(F)(F)F)c2)n(-c2ccc(C#N)cn2)n1` [Example I-20, 3-[(4-Chlorobenzyl)oxy]-N-{(1S)-1-[1-(5-cyanopyridin-2-yl)-3-methyl-1H-1,2,4-triazol-5-yl]ethyl}-5-(trifluoromethyl)benzamide], for which the pest or weed control at 4 µg/tick in test [3] is 100%.

As for `C[C@H](NC(=O)c1cc(CC#N)cc(OC(F)(F)F)c1)c1ncnn1-c1cnc(C#N)cn1` [Example I-57], in test [2], the mortality at 100 g/ha turned out to be 100%.

`C[C@H](NC(=O)c1cc(C(C)(C)C#N)cc(S(C)(=O)=O)c1)c1nc(C2CC2)nn1-c1ncc(C#N)s1` [Example I-93]: the pest or weed control at 32 µg/disc, 100 g/ha in test [1] amounted to 80%. Moreover, in test [2], the mortality at 100 g/ha turned out to be 100%.

On to `C[C@H](NC(=O)c1cc(Br)cc(OCC2CC2(Cl)Cl)c1)c1ncnn1-c1ncc(C#N)s1` (stereo partly shown) [Example I-62], for which the pest or weed control at 32 µg/disc, 100 g/ha in test [1] turned out to be 100%.

As for `Cc1nc([C@H](C)NC(=O)c2cc(Cl)cc(C(=O)C3CC3)c2)n(-c2ncc(C#N)s2)n1` [Example I-82], the pest or weed control at 32 µg/disc, 100 g/ha in test [1] was found to be 100%. In addition, the mortality at 100 g/ha in test [2] was 100%.

As for `C[C@H](NC(=O)c1cc(Br)cc(OC2CC2)c1)c1ncnn1-c1ncc(C#N)s1` [Example I-49], the pest or weed control at 32 µg/disc, 100 g/ha in test [1] was determined as 100%. Further, the mortality at 100 g/ha in test [2] was 100%.

Turning to `C[C@H](NC(=O)c1cc(Cl)cc(C(=O)C2CC2)c1)c1ncnn1-c1ncc(C#N)s1` [Example I-83], the pest or weed control at 32 µg/disc, 100 g/ha in test [1] amounted to 100%. This compound registered a mortality at 100 g/ha in test [2] of 100%.

For the compound `Cc1nc([C@H](C)NC(=O)c2cc(OC(C)c3cccc(Cl)c3)cc(C(F)(F)F)c2)n(-c2ccc(C#N)cn2)n1` (stereo partly drawn) [Example I-12, 3-[1-(3-Chlorophenyl)ethoxy]-N-{(1S)-1-[1-(5-cyanopyridin-2-yl)-3-methyl-1H-1,2,4-triazol-5-yl]ethyl}-5-(trifluoromethyl)benzamide], in test [3], the pest or weed control at 4 µg/tick amounted to 100% and the pest or weed control at 20 µg/tick turned out to be 100%.

Consider `Cc1nc([C@H](C)NC(=O)c2cc(O)cc(C(F)(F)F)c2)n(-c2ccc(C#N)cn2)n1` [Example I-47, N-{(1S)-1-[1-(5-Cyanopyridin-2-yl)-3-methyl-1H-1,2,4-triazol-5-yl]ethyl}-3-hydroxy-5-(trifluoromethyl)benzamide], for which, in test [3], the pest or weed control at 4 µg/tick came out at 100% and the pest or weed control at 20 µg/tick came to 100%.

Regarding `C[C@H](NC(=O)c1cc(Br)cc(OC(C)(C)C#N)c1)c1ncnn1-c1cnc(C#N)cn1` [Example I-84], the mortality at 100 g/ha in test [2] was 100%.

As to `Cc1nc([C@H](C)NC(=O)c2cc(Br)cc(C(F)(F)c3ccc(F)cc3)c2)n(-c2ncc(C#N)s2)n1` [Example I-79], the pest or weed control at 32 µg/disc, 100 g/ha in test [1] is 100%. Also, the mortality at 100 g/ha in test [2] is 100%.

In the case of `C[C@H](NC(=O)c1cc(OC2CC2)cc(OC(F)(F)F)c1)c1ncnn1-c1cc(C#N)ncn1` [Example I-87], the pest or weed control at 32 µg/disc, 100 g/ha in test [1] turned out to be 80%. In addition, in test [2], the mortality at 100 g/ha is 100%.

Take `CC(=O)Oc1cc(Cl)cc(C(=O)N[C@@H](C)c2ncnn2-c2ccc(C#N)cn2)c1` [Example I-11]: in test [3], the pest or weed control at 4 µg/tick was 80% and the pest or weed control at 20 µg/tick amounted to 80%.

On to `C[C@H](NC(=O)c1cc(Cl)nc(C(C)(C)C#N)c1)c1nc(C2CC2)nn1-c1ncc(C#N)s1` [Example I-69], for which the pest or weed control at 32 µg/disc, 100 g/ha in test [1] came out at 100%. In test [2], this compound yielded a mortality at 100 g/ha of 100%.

For `Cc1nc([C@H](C)NC(=O)c2cc(OC3CC3)cc(OC(F)(F)F)c2)n(-c2ncc(C#N)s2)n1` [Example I-88], the pest or weed control at 32 µg/disc, 100 g/ha in test [1] came out at 100%. The mortality at 100 g/ha in test [2] was 100%.

On to `Cc1nc([C@H](C)NC(=O)c2cc(OC(C)c3ccccc3Cl)cc(C(F)(F)F)c2)n(-c2ccc(C#N)cn2)n1` (stereo partly drawn) [Example I-14, 3-[1-(2-Chlorophenyl)ethoxy]-N-{(1S)-1-[1-(5-cyanopyridin-2-yl)-3-methyl-1H-1,2,4-triazol-5-yl]ethyl}-5-(trifluoromethyl)benzamide], for which, in test [3], the pest or weed control at 4 µg/tick turned out to be 100% and the pest or weed control at 20 µg/tick is 100%.

For `C[C@H](NC(=O)c1cc(Br)cc(C(F)(F)c2ccc(F)cc2)c1)c1ncnn1-c1cc(C#N)ncn1` [Example I-80], the pest or weed control at 32 µg/disc, 100 g/ha in test [1] was found to be 100%. In test [2], the mortality at 100 g/ha is 100%.

With `C[C@H](NC(=O)c1cc(OC(F)(F)F)cc(C(C)(C)C#N)c1)c1nc(C2CC2)nn1-c1cc(C#N)ncn1` [Example I-76], the pest or weed control at 32 µg/disc, 100 g/ha in test [1] is 100%. This compound also had a mortality at 100 g/ha in test [2] of 100%.

Turning to `C[C@H](NC(=O)c1cc(OC(C)(C)C#N)cc(C2CC2)c1)c1ncnn1-c1ncc(C#N)s1` [Example I-89], the pest or weed control at 32 µg/disc, 100 g/ha in test [1] came out at 100%.

In the case of `C[C@H](NC(=O)c1cc(Br)cc(OC(C)(C)C#N)c1)c1ncnn1-c1cc(C#N)ncn1` [Example I-85], in test [2], the mortality at 100 g/ha was found to be 100%.

Take `C[C@H](NC(=O)c1cc(OC(F)(F)F)cc(C(C)(C)C#N)c1)c1nc(C2CC2)nn1-c1ncc(C#N)s1` [Example I-67]: the pest or weed control at 32 µg/disc, 100 g/ha in test [1] is 100%. Moreover, in test [2], the mortality at 100 g/ha was found to be 100%.

For the compound `C[C@H](NC(=O)c1cc(Cl)cc(CC#N)c1)c1ncnn1-c1ncc(C#N)s1` [Example I-50], in test [1], the pest or weed control at 32 µg/disc, 100 g/ha came out at 100%.

For `C[C@H](NC(=O)c1cc(Br)cc(C(F)(F)c2ccc(F)cc2)c1)c1ncnn1-c1ncc(C#N)s1` [Example I-78], the pest or weed control at 32 µg/disc, 100 g/ha in test [1] was found to be 100%. Besides, the mortality at 100 g/ha in test [2] was 100%.

Regarding `Cc1nc([C@H](C)NC(=O)c2cc(OCc3cccc(Cl)c3)cc(C(F)(F)F)c2)n(-c2ccc(C#N)cn2)n1` [Example I-13, 3-[(3-Chlorobenzyl)oxy]-N-{(1S)-1-[1-(5-cyanopyridin-2-yl)-3-methyl-1H-1,2,4-triazol-5-yl]ethyl}-5-(trifluoromethyl)benzamide], the pest or weed control at 32 µg/disc, 100 g/ha in test [1] was 100%. Besides, in test [3], the pest or weed control at 4 µg/tick is 80% and the pest or weed control at 20 µg/tick stood at 100%.

For `C[C@H](NC(=O)c1cc(C(C)(C)C#N)cc(S(C)(=O)=O)c1)c1ncnn1-c1ncc(C#N)s1` [Example I-55], the mortality at 100 g/ha stood at 100% in test [2] and 90% in test [4] (100 g/ha). In test [4] (500 g/ha), this compound came in with a mortality at 500 g/ha of 90%.

Take `Cc1nc([C@H](C)NC(=O)c2cc(OCc3ccccc3)cc(C(F)(F)F)c2)n(-c2ccc(C#N)cn2)n1` [Example I-18, 3-(Benzyloxy)-N-{(1S)-1-[1-(5-cyanopyridin-2-yl)-3-methyl-1H-1,2,4-triazol-5-yl]ethyl}-5-(trifluoromethyl)benzamide]: the pest or weed control at 32 µg/disc, 100 g/ha in test [1] was 100%. Also, the pest or weed control at 4 µg/tick in test [3] worked out at 100%.

For the compound `Cc1nc([C@H](C)NC(=O)c2cc(OC(C)(C)C#N)cc(C3CC3)c2)n(-c2ncc(C#N)s2)n1` [Example I-90], in test [1], the pest or weed control at 32 µg/disc, 100 g/ha came out at 100%.

Regarding `C[C@H](NC(=O)c1cc(Br)cc(OCC2CC2(F)F)c1)c1ncnn1-c1ncc(C#N)s1` (stereo partly shown) [Example I-63], in test [1], the pest or weed control at 32 µg/disc, 100 g/ha was found to be 100%.

For the compound `Cc1nc([C@H](C)NC(=O)c2cc(OCc3ccccc3Cl)cc(C(F)(F)F)c2)n(-c2ccc(C#N)cn2)n1` [Example I-16, 3-[(2-Chlorobenzyl)oxy]-N-{(1S)-1-[1-(5-cyanopyridin-2-yl)-3-methyl-1H-1,2,4-triazol-5-yl]ethyl}(trifluoromethyl)benzamide], in test [3], the pest or weed control at 4 µg/tick was determined as 100% and the pest or weed control at 20 µg/tick was determined as 100%.

For `C[C@H](NC(=O)c1cc(OC2CC2)cc(OC(F)(F)F)c1)c1ncnn1-c1cnc(C#N)cn1` [Example I-86], the pest or weed control at 32 µg/disc, 100 g/ha in test [1] is 100%. In addition, the mortality at 100 g/ha in test [2] was determined as 100%.

Consider `C[C@H](NC(=O)c1cc(Cl)cc(C(=O)C2CC2)c1)c1ncnn1-c1cc(C#N)ncn1` [Example I-81], for which the pest or weed control at 32 µg/disc, 100 g/ha in test [1] came out at 100%. Besides, the mortality at 100 g/ha in test [2] amounted to 100%.

Compound `C[C@H](NC(=O)c1cc(OC(C)(C)C#N)cc(C2CC2)c1)c1ncnn1-c1cc(C#N)ncn1` [Example I-92] came in with a mortality at 100 g/ha in test [2] of 100%.
